Data as given in patent publication US20140348819A1, “Methods of Treating Cancer” (Dana-Farber Cancer Institute, Inc., priority 2011, published 2014).

Tested on: six V600E BRAF melanoma cell lines
Test: Screening of recombinant RTK ligands for ability to confer resistance to BRAFi (PLX4720) or MEKi (PD184352) (Table 4)
Type: cell-based, human
Set-up: ability of recombinant RTK ligand to confer resistance / ability of recombinant RTK ligand to confer resistance (screening value): scale not given here
Method in brief: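 Six V600E BRAF melanoma lines treated with PLX4720 or PD184352 after addition of 22 recombinant RTK ligands, scored for drug resistance. Activation of selected RTKs confirmed by western blotting and high-throughput tyrosine kinase phosphorylation profiling.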

IGF-I
ability of recombinant RTK ligand to confer resistance (A2058, PD184352 - 1 uM, ligand 0.4 ng/ml): 1.10
ability of recombinant RTK ligand to confer resistance (A2058, PD184352 - 1 uM, ligand 1.6 ng/ml): 1.02
ability of recombinant RTK ligand to confer resistance (A2058, PD184352 - 1 uM, ligand 6.25 ng/ml): 1.03
ability of recombinant RTK ligand to confer resistance (A2058, PD184352 - 1 uM, ligand 25 ng/ml): 1.08
ability of recombinant RTK ligand to confer resistance (A2058, PD184352 - 1 uM, ligand 100 ng/ml): 1.02
ability of recombinant RTK ligand to confer resistance (A2058, PLX4720 - 2 uM, ligand 0.4 ng/ml): 1.05
ability of recombinant RTK ligand to confer resistance (A2058, PLX4720 - 2 uM, ligand 1.6 ng/ml): 0.95
ability of recombinant RTK ligand to confer resistance (A2058, PLX4720 - 2 uM, ligand 6.25 ng/ml): 0.97
ability of recombinant RTK ligand to confer resistance (A2058, PLX4720 - 2 uM, ligand 25 ng/ml): 1.04
ability of recombinant RTK ligand to confer resistance (A2058, PLX4720 - 2 uM, ligand 100 ng/ml): 0.99
ability of recombinant RTK ligand to confer resistance (C32, PD184352 - 1 uM, ligand 0.4 ng/ml): 1.05
ability of recombinant RTK ligand to confer resistance (C32, PD184352 - 1 uM, ligand 1.6 ng/ml): 1.04
ability of recombinant RTK ligand to confer resistance (C32, PD184352 - 1 uM, ligand 6.25 ng/ml): 1.21
ability of recombinant RTK ligand to confer resistance (C32, PD184352 - 1 uM, ligand 25 ng/ml): 1.16
ability of recombinant RTK ligand to confer resistance (C32, PD184352 - 1 uM, ligand 100 ng/ml): 1.21
ability of recombinant RTK ligand to confer resistance (C32, PLX4720 - 2 uM, ligand 0.4 ng/ml): 1.08
ability of recombinant RTK ligand to confer resistance (C32, PLX4720 - 2 uM, ligand 1.6 ng/ml): 1.12
ability of recombinant RTK ligand to confer resistance (C32, PLX4720 - 2 uM, ligand 6.25 ng/ml): 1.17
ability of recombinant RTK ligand to confer resistance (C32, PLX4720 - 2 uM, ligand 25 ng/ml): 1.15
ability of recombinant RTK ligand to confer resistance (C32, PLX4720 - 2 uM, ligand 100 ng/ml): 1.07
ability of recombinant RTK ligand to confer resistance (Colo 829, PD184352 - 1 uM, ligand 0.4 ng/ml): 1.06
ability of recombinant RTK ligand to confer resistance (Colo 829, PD184352 - 1 uM, ligand 1.6 ng/ml): 0.97
ability of recombinant RTK ligand to confer resistance (Colo 829, PD184352 - 1 uM, ligand 6.25 ng/ml): 1.03
ability of recombinant RTK ligand to confer resistance (Colo 829, PD184352 - 1 uM, ligand 25 ng/ml): 1.01
ability of recombinant RTK ligand to confer resistance (Colo 829, PD184352 - 1 uM, ligand 100 ng/ml): 1.08
ability of recombinant RTK ligand to confer resistance (Colo 829, PLX4720 - 2 uM, ligand 0.4 ng/ml): 1.00
ability of recombinant RTK ligand to confer resistance (Colo 829, PLX4720 - 2 uM, ligand 1.6 ng/ml): 0.99
ability of recombinant RTK ligand to confer resistance (Colo 829, PLX4720 - 2 uM, ligand 6.25 ng/ml): 1.06
ability of recombinant RTK ligand to confer resistance (Colo 829, PLX4720 - 2 uM, ligand 25 ng/ml): 1.03
ability of recombinant RTK ligand to confer resistance (Colo 829, PLX4720 - 2 uM, ligand 100 ng/ml): 1.07
ability of recombinant RTK ligand to confer resistance (G-361, PD184352 - 1 uM, ligand 0.4 ng/ml): 1.06
ability of recombinant RTK ligand to confer resistance (G-361, PD184352 - 1 uM, ligand 1.6 ng/ml): 1.00
ability of recombinant RTK ligand to confer resistance (G-361, PD184352 - 1 uM, ligand 6.25 ng/ml): 1.17
ability of recombinant RTK ligand to confer resistance (G-361, PD184352 - 1 uM, ligand 25 ng/ml): 0.99
ability of recombinant RTK ligand to confer resistance (G-361, PD184352 - 1 uM, ligand 100 ng/ml): 0.95
ability of recombinant RTK ligand to confer resistance (G-361, PLX4720 - 2 uM, ligand 0.4 ng/ml): 1.03
ability of recombinant RTK ligand to confer resistance (G-361, PLX4720 - 2 uM, ligand 1.6 ng/ml): 1.05
ability of recombinant RTK ligand to confer resistance (G-361, PLX4720 - 2 uM, ligand 6.25 ng/ml): 1.11
ability of recombinant RTK ligand to confer resistance (G-361, PLX4720 - 2 uM, ligand 25 ng/ml): 0.99
ability of recombinant RTK ligand to confer resistance (G-361, PLX4720 - 2 uM, ligand 100 ng/ml): 0.87
ability of recombinant RTK ligand to confer resistance (SK-MEL-5, PD184352 - 1 uM, ligand 0.4 ng/ml): 1.01
ability of recombinant RTK ligand to confer resistance (SK-MEL-5, PD184352 - 1 uM, ligand 1.6 ng/ml): 1.01
ability of recombinant RTK ligand to confer resistance (SK-MEL-5, PD184352 - 1 uM, ligand 6.25 ng/ml): 1.08
ability of recombinant RTK ligand to confer resistance (SK-MEL-5, PD184352 - 1 uM, ligand 25 ng/ml): 1.06
ability of recombinant RTK ligand to confer resistance (SK-MEL-5, PD184352 - 1 uM, ligand 100 ng/ml): 1.29
ability of recombinant RTK ligand to confer resistance (SK-MEL-5, PLX4720 - 2 uM, ligand 0.4 ng/ml): 1.01
ability of recombinant RTK ligand to confer resistance (SK-MEL-5, PLX4720 - 2 uM, ligand 1.6 ng/ml): 1.03
ability of recombinant RTK ligand to confer resistance (SK-MEL-5, PLX4720 - 2 uM, ligand 6.25 ng/ml): 1.19
ability of recombinant RTK ligand to confer resistance (SK-MEL-5, PLX4720 - 2 uM, ligand 25 ng/ml): 1.25
ability of recombinant RTK ligand to confer resistance (SK-MEL-5, PLX4720 - 2 uM, ligand 100 ng/ml): 1.12
ability of recombinant RTK ligand to confer resistance (SK-MEL-28, PD184352 - 1 uM, ligand 0.4 ng/ml): 1.10
ability of recombinant RTK ligand to confer resistance (SK-MEL-28, PD184352 - 1 uM, ligand 1.6 ng/ml): 1.06
ability of recombinant RTK ligand to confer resistance (SK-MEL-28, PD184352 - 1 uM, ligand 6.25 ng/ml): 0.98
ability of recombinant RTK ligand to confer resistance (SK-MEL-28, PD184352 - 1 uM, ligand 25 ng/ml): 1.06
ability of recombinant RTK ligand to confer resistance (SK-MEL-28, PD184352 - 1 uM, ligand 100 ng/ml): 1.12
ability of recombinant RTK ligand to confer resistance (SK-MEL-28, PLX4720 - 2 uM, ligand 0.4 ng/ml): 1.24
ability of recombinant RTK ligand to confer resistance (SK-MEL-28, PLX4720 - 2 uM, ligand 1.6 ng/ml): 1.08
ability of recombinant RTK ligand to confer resistance (SK-MEL-28, PLX4720 - 2 uM, ligand 6.25 ng/ml): 1.09
ability of recombinant RTK ligand to confer resistance (SK-MEL-28, PLX4720 - 2 uM, ligand 25 ng/ml): 1.02
ability of recombinant RTK ligand to confer resistance (SK-MEL-28, PLX4720 - 2 uM, ligand 100 ng/ml): 1.01
